Where a name gives a salt, the structure may show the parent alone.
What was measured:
CDK6 kinase = CDK6 kinase (Homo sapiens (Human), UniProt Q00534); assay: CDK6 kinase activity, Lance Ultra TR-FRET; type: biochemical
DYRK2 kinase = DYRK2 kinase (Homo sapiens (Human), UniProt Q92630); assay: DYRK2 kinase activity, 33P-ATP / Woodtide substrate; type: biochemical
DYRK2 kinase, sequence (Q92630 whole entry): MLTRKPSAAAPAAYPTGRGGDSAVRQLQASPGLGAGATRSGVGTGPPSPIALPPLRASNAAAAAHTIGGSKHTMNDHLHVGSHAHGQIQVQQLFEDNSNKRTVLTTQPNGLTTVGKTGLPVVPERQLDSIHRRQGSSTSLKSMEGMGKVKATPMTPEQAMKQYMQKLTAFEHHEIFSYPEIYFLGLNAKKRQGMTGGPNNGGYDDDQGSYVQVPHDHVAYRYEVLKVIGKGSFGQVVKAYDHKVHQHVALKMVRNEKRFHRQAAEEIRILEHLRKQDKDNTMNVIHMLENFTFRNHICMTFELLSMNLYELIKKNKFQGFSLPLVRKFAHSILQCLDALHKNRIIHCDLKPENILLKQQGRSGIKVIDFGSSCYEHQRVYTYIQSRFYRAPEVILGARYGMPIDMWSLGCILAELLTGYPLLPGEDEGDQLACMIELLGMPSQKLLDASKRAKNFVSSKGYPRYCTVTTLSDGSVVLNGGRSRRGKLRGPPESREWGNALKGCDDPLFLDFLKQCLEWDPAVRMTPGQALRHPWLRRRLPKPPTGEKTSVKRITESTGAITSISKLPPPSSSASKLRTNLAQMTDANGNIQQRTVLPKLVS

CDK6 kinase, sequence (Q00534 whole entry): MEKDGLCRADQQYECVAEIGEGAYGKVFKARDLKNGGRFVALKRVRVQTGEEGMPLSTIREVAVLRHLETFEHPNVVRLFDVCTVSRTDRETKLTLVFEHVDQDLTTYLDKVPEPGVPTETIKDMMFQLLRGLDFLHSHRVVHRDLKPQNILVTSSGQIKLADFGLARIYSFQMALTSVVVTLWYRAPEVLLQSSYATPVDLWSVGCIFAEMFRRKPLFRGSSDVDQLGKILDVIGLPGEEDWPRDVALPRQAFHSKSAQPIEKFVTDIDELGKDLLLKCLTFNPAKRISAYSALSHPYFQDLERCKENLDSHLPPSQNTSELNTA
CDK6 kinase, sequence (P24385 whole entry partner): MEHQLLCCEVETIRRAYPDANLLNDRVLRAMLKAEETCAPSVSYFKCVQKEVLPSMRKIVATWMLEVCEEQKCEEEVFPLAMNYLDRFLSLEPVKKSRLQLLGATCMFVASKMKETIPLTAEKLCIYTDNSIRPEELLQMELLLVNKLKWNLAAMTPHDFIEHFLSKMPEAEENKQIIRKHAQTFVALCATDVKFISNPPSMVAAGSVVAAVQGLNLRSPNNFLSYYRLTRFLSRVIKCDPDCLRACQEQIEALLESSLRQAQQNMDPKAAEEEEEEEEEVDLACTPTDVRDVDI

| Structure (SMILES) | IC50 (CDK6 kinase) [nM] | IC50 (DYRK2 kinase) [nM] |
| --- | --- | --- |
| Cc1nc2ccc(-c3nc(Nc4ccc(C(=O)N5CCN(C(=O)OC(C)(C)C)CC5)cn4)ncc3F)cc2s1 [Example 16, tert-butyl 4-(6-((5-fluoro-4-(2-methylbenzothiazole-6-yl)pyrimidine-2-yl)amino)nicotinoyl)piperazine-1-carboxylate] | 86 | – |
| Cc1nc2ccc(-c3nc(Nc4ccc(C(=O)N5CCNCC5)cn4)ncc3F)cc2s1 [Example 17, (6-((5-fluoro-4-(2-methylbenzothiazole-6-yl)pyrimidine-2-yl)amino)pyridine-3-yl)(piperazine-1-yl)ketone hydrochloride] | 93 | 27 |
| CCN1CCN(Cc2ccc(Nc3ncc(F)c(-c4ccc5ncsc5c4)n3)nc2)CC1 [Example 2, 4-(benzothiazole-6-yl)-N-(5-((4-ethylpiperazine-1-yl)methyl)pyridine-2-yl)-5-fluoropyrimidine-2-amine] | 244 | – |
| CCN1CCN(C(=O)c2ccc(Nc3ncc(F)c(-c4ccc5ncsc5c4)n3)nc2)CC1 [Example 1, (6-((4-(benzothiazole-6-yl)-5-fluoropyrimidine-2-yl)amino)pyridine-3-yl)(4-ethylpiperazine-1-yl)ketone] | 144 | – |
| CC(C)(C)OC(=O)N1CCN(c2ccc(Nc3ncc(F)c(-c4ccc5ncsc5c4)n3)nc2)CC1 [Example 7, tert-butyl 4-(6-((4-(benzothiazole-6-yl)-5-fluoropyrimidine-2-yl)amino)pyridine-3-yl)piperazine-1-carboxylate] | > 10000 | – |
| CN(C)c1nc2ccc(-c3nc(Nc4ccc(N5CCNCC5)cn4)ncc3F)cc2s1 [Example 41, 6-(5-fluoro-2-((5-(piperazine-1-yl)pyridine-2-yl)amino)pyrimidine-4-yl)-N,N-dimethylbenzothiazole-2-amine hydrochloride] | 61 | – |
| Fc1cnc(Nc2ccc(CN3CCNCC3)cn2)nc1-c1ccc2ncsc2c1 [Example 4, 4-(benzothiazole-6-yl)-5-fluoro-N-(5-(piperazine-1-ylmethyl)pyridine-2-yl)pyrimidine-2-amine hydrochloride] | 268 | – |
| CC(C)N1CCN(Cc2ccc(Nc3ncc(F)c(-c4ccc5ncsc5c4)n3)nc2)CC1 [Example 11, 4-(benzothiazole-6-yl)-5-fluoro-N-(5-((4-isopropylpiperazine-1-yl)methyl)pyridine-2-yl)pyrimidine-2-amine] | 175 | 263 |
| Fc1cnc(Nc2ccc(N3CCNCC3)cn2)nc1-c1ccc2ncsc2c1 [Example 8, 4-(benzothiazole-6-yl)-5-fluoro-N-(5-(piperazine-1-yl)pyridine-2-yl)pyrimidine-2-amine hydrochloride] | 129 | 85 |
| CC(C)N1CCN(C(=O)c2ccc(Nc3ncc(F)c(-c4ccc5nc(N(C)C)sc5c4)n3)nc2)CC1 [Example 39, (6-((4-(2-(dimethylamino)benzothiazole-6-yl)-5-fluoropyrimidine-2-yl)amino)pyridine-3-yl)(4-isopropylpiperazine-1-yl)ketone] | 57 | 16 |
| CN(C)c1nc2ccc(-c3nc(Nc4ccc(C(=O)N5CCN(C(=O)OC(C)(C)C)CC5)cn4)ncc3F)cc2s1 [Example 34, tert-butyl 4-(6-((4-(2-(dimethylamino)benzothiazole-6-yl)-5-fluoropyrimidine-2-yl)amino)nicotinoyl)piperazine-1-carboxylate] | > 10000 | – |
| CN(C)c1nc2ccc(-c3nc(Nc4ccc(C(=O)N5CCNCC5)cn4)ncc3F)cc2s1 [Example 35, (6-((4-(2-(dimethylamino)benzothiazole-6-yl)-5-fluoropyrimidine-2-yl)amino)pyridine-3-yl)(piperazine-1-yl)ketone hydrochloride] | 41 | – |

Results, then the compound that gave them:

| IC50 (CDK6 kinase) [nM] | IC50 (DYRK2 kinase) [nM] | Structure (SMILES) |
| --- | --- | --- |
| > 1000 | – | CN(C)c1nc2ccc(-c3nc(Nc4ccc(N5CCN(C(=O)OC(C)(C)C)CC5)cn4)ncc3F)cc2s1 [Example 40, tert-butyl 4-(6-((4-(2-(dimethylamino)benzothiazole-6-yl)-5-fluoropyrimidine-2-yl)amino)pyridine-3-yl)piperazine-1-carboxylate] |
| > 1000 | – | CCOC(=O)N1CCN(Cc2ccc(Nc3ncc(F)c(-c4ccc5nc(N(C)C)sc5c4)n3)nc2)CC1 [Example 38, ethyl 4-((6-((4-(2-(dimethylamino)benzothiazole-6-yl)-5-fluoropyrimidine-2-yl)amino)pyridine-3-yl)methyl)piperazine-1-carboxylate] |
| 45 | 290 | CCN(CC)c1nc2ccc(-c3nc(Nc4ccc(CN5CCNCC5)cn4)ncc3F)cc2s1 [Example 45, N,N-diethyl-6-(5-fluoro-2-((5-(piperazine-1-ylmethyl)pyridine-2-yl)amino)pyrimidine-4-yl)benzothiazole-2-amine hydrochloride] |
| 15 | 197 | CCN1CCN(Cc2ccc(Nc3ncc(F)c(-c4ccc5nc(N(CC)CC)sc5c4)n3)nc2)CC1 [Example 43] |
| 142 | – | CC(C)N1CCN(Cc2ccc(Nc3ncc(F)c(-c4ccc5nc(N(C)C)sc5c4)n3)nc2)CC1 [Example 36, 6-(5-fluoro-2-((5-((4-isopropylpiperazine-1-yl)methyl)pyridine-2-yl)amino)pyrimidine-4-yl)-N,N-dimethylbenzothiazole-2-amine] |
| 8 | – | CCN(CC)c1nc2ccc(-c3nc(Nc4ccc(C(=O)N5CCN(C(C)C)CC5)cn4)ncc3F)cc2s1 [Example 51, (6-((4-(2-(diethylamino)benzothiazole-6-yl)-5-fluoropyrimidine-2-yl)amino)pyridine-3-yl)(4-isopropylpiperazine-1-yl)ketone] |
| 272 | – | CC(C)(C)OC(=O)N1CCN(Cc2ccc(Nc3ncc(F)c(-c4ccc5ncsc5c4)n3)nc2)CC1 [Example 3, tert-butyl 4-((6-((4-(benzothiazole-6-yl)-5-fluoropyrimidine-2-yl)amino)pyridine-3-yl)methyl)piperazine-1-carboxylate] |
| > 10000 | – | CCN(CC)c1nc2ccc(-c3nc(Nc4ccc(CN5CCN(S(C)(=O)=O)CC5)cn4)ncc3F)cc2s1 [Example 48, N,N-diethyl-6-(5-fluoro-2-((5-((4-(methanesulfonyl)piperazine-1-yl)methyl)pyridine-2-yl)amino)pyrimidine-4-yl)benzothiazole-2-amine] |
| > 10000 | – | CN(C)c1nc2ccc(-c3nc(Nc4ccc(CN5CCN(S(C)(=O)=O)CC5)cn4)ncc3F)cc2s1 [Example 37, 6-(5-fluoro-2-((5-((4-(methanesulfonyl)piperazine-1-yl)methyl)pyridine-2-yl)amino)pyrimidine-4-yl)-N,N-dimethylbenzothiazole-2-amine] |
| 254 | – | CCN1CCN(Cc2ccc(Nc3ncc(F)c(-c4ccc5nc(N(C)C)sc5c4)n3)nc2)CC1 [Example 30, 6-(2-((5-((4-ethylpiperazine-1-yl)methyl)pyridine-2-yl)amino)-5-fluoropyrimidine-4-yl)-N,N-dimethylbenzothiazole-2-amine] |
| > 10000 | – | CCOC(=O)N1CCN(Cc2ccc(Nc3ncc(F)c(-c4ccc5nc(N(CC)CC)sc5c4)n3)nc2)CC1 [Example 49, ethyl 4-((6-((4-(2-(diethylamino)benzothiazole-6-yl)-5-fluoropyrimidine-2-yl)amino)pyridine-3-yl)methyl)piperazine-1-carboxylate] |
| > 1000 | – | CCN(CC)c1nc2ccc(-c3nc(Nc4ccc(CN5CCN(C(=O)OC(C)(C)C)CC5)cn4)ncc3F)cc2s1 [Example 44, tert-butyl 4-((6-((4-(2-(diethylamino)benzothiazole-6-yl)-5-fluoropyrimidine-2-yl)amino)pyridine-3-yl)methyl)piperazine-1-carboxylate] |
| 169 | – | CCOC(=O)N1CCN(Cc2ccc(Nc3ncc(F)c(-c4ccc5ncsc5c4)n3)nc2)CC1 [Example 10, ethyl 4-((6-((4-(benzothiazole-6-yl)-5-fluoropyrimidine-2-yl)amino)pyridine-3-yl)methyl)piperazine-1-carboxylate] |
| 31 | – | CCN(CC)c1nc2ccc(-c3nc(Nc4ccc(CN5CCN(C(C)C)CC5)cn4)ncc3F)cc2s1 [Example 50] |
| 59 | – | CN(C)c1nc2ccc(-c3nc(Nc4ccc(CN5CCNCC5)cn4)ncc3F)cc2s1 [Example 33, 6-(5-fluoro-2-((5-(piperazine-1-ylmethyl)pyridine-2-yl)amino)pyrimidine-4-yl)-N,N-dimethylbenzothiazole-2-amine hydrochloride] |
| > 10000 | – | CN(C)c1nc2ccc(-c3nc(Nc4ccc(CN5CCN(C(=O)OC(C)(C)C)CC5)cn4)ncc3F)cc2s1 [Example 32, tert-butyl 4-((6-((4-(2-(dimethylamino)benzothiazole-6-yl)-5-fluoropyrimidine-2-yl)amino)pyridine-3-yl)methyl)piperazine-1-carboxylate] |
